# Legend:
# cowpox virus (Brighton) = test: organism not typed; type: cell-based; conditions: HFF, read-out: EC50 in cells infected with cowpox or vaccinia virus
# ECTV-Moscow strain = test: organism not typed; type: cell-based, Ectromelia
# [1] = test system: Vaccinia virus (Copenhagen); test: microbe, parasite or virus in culture; type: cell-based; conditions: Orthopoxvirus vaccinia, HFF, read-out: Vaccinia EC50
compound,measurement,setting,value
"CC(C)CCCCCCCCCCCOCCCOP(=O)(O)CO[C@H](CO)Cn1ccc(N)nc1=O [Compound 12M-TRDP-CDV, 12-methyl-tridecyloxypropyl-cidofovir]",EC50,cowpox virus (Brighton),800 to 1000 nM
"C=CCCCCCCCCCCCCCCOCCOP(=O)(O)CO[C@H](CO)Cn1cnc2c(N)ncnc21 [HDNE-(S)-HPMPA, ω-hexadecenyloxyethyl-(S)-HPMPA]",Ectromelia S.I. (selective index),ECTV-Moscow strain,7
same,EC50,"ECTV-Moscow strain; BSC-1, read-out: antiviral activity (EC50), virus not specified",300 to 740 nM
"CCCCCCCCCCCCCCCCOCCCOP(=O)(O)CO[C@H](CO)Cn1cnc2c(N)ncnc21 [HDP-(S)-HPMPA, hexadecyloxypropyl-(S)-HPMPA]","% intact compound, human liver S9",,92-93%
"CCCCCCCCCCCCCCCCOCCCOP(=O)(O)CO[C@H](CO)Cn1ccc(N)nc1=O [HDP-CDV, hexadecyloxypropyl-cidofovir]",EC50,[1],80 ± 30 nM
"CCCCCCCCCCCCCCCCCCOC[C@@H](COP(=O)(O)CO[C@H](CO)Cn1ccc(N)nc1=O)OCc1ccccc1 [ODBG-CDV, 1-O-octadecyl-2-O-benzyl-sn-glyceryl-3-cidofovir]","% compound remaining, Human S9","s9, 1.5 h",91-92%

# Reference: paper PMC3104040 (Bioorganic & medicinal chemistry, 2011)
